Assay results: the NIST ThermoML archive (doi:10.1021/acs.jced.6b00606)

What was measured:
[1] = xn = mol fraction of the nth substance listed; details: 100 kPa, Liquid; for speed of sound: Frequency=3 MHz, Sing-around technique in a fixed-path interferometer; for mass density: Vibrating tube method
[2] = excess molar enthalpy (molar enthalpy of mixing); xn = mol fraction of the nth substance listed; details: 308.15 K, 1e-07 kPa, Liquid, Calvet calorimetry

O=C1CCCCCC1 [cycloheptanone] + C1CCOCC1
[1]
Details | mass density, 293.15 K [kg/m3] | mass density, 298.15 K [kg/m3] | mass density, 303.15 K [kg/m3] | mass density, 308.15 K [kg/m3] | speed of sound, 293.15 K [m/s] | speed of sound, 298.15 K [m/s] | speed of sound, 303.15 K [m/s] | speed of sound, 308.15 K [m/s]
x2 = 0.0845 | 948.05 | 943.9 | 939.65 | 935.43 | 1457.2 | 1435 | 1411.9 | 1389.1
x2 = 0.1276 | 946.02 | 941.88 | 937.63 | 933.42 | 1447.3 | 1424.9 | 1401.8 | 1378.9
x2 = 0.1794 | 943.48 | 939.35 | 935.11 | 930.88 | 1435.5 | 1413 | 1389.8 | 1366.9
x2 = 0.2172 | 941.57 | 937.43 | 933.19 | 928.95 | 1427.2 | 1404.5 | 1381.3 | 1358.4
x2 = 0.254 | 939.66 | 935.51 | 931.26 | 927.02 | 1419.2 | 1396.5 | 1373.2 | 1350.2
x2 = 0.3098 | 936.64 | 932.46 | 928.23 | 923.95 | 1407.4 | 1384.5 | 1361.1 | 1338.2
x2 = 0.341 | 934.9 | 930.72 | 926.47 | 922.18 | 1400.9 | 1378 | 1354.6 | 1331.6
x2 = 0.3982 | 931.59 | 927.36 | 923.12 | 918.8 | 1389.4 | 1366.4 | 1342.9 | 1319.9
x2 = 0.4407 | 929.02 | 924.78 | 920.53 | 916.18 | 1381.2 | 1358 | 1334.6 | 1311.6
x2 = 0.4986 | 925.38 | 921.12 | 916.82 | 912.46 | 1370.2 | 1346.9 | 1323.6 | 1300.6
x2 = 0.5312 | 923.24 | 918.96 | 914.66 | 910.27 | 1364.3 | 1340.9 | 1317.5 | 1294.6
x2 = 0.5779 | 920.07 | 915.78 | 911.43 | 907.03 | 1355.9 | 1332.6 | 1309.2 | 1286.3
x2 = 0.6295 | 916.42 | 912.11 | 907.7 | 903.26 | 1347.1 | 1323.7 | 1300.3 | 1277.4
x2 = 0.6717 | 913.29 | 908.95 | 904.49 | 900.02 | 1340.1 | 1316.6 | 1293.3 | 1270.5
x2 = 0.7229 | 909.34 | 904.97 | 900.41 | 895.9 | 1331.9 | 1308.4 | 1285.2 | 1262.4
x2 = 0.7686 | 905.66 | 901.22 | 896.58 | 892.03 | 1324.8 | 1301.4 | 1278.2 | 1255.4
x2 = 0.8202 | 901.28 | 896.77 | 892.03 | 887.39 | 1317.2 | 1293.7 | 1270.6 | 1247.9
x2 = 0.8742 | 896.48 | 891.84 | 886.98 | 882.23 | 1309.5 | 1286.1 | 1263 | 1240.4

[2]
Details | excess molar enthalpy [kcal/mol]
x2 = 0.0898 | 0.0131
x2 = 0.1356 | 0.0179
x2 = 0.1846 | 0.0214
x2 = 0.2366 | 0.025
x2 = 0.2882 | 0.0271
x2 = 0.3312 | 0.0284
x2 = 0.3942 | 0.0295
x2 = 0.4412 | 0.0298
x2 = 0.4895 | 0.0298
x2 = 0.5326 | 0.0295
x2 = 0.5842 | 0.0287
x2 = 0.6335 | 0.0277
x2 = 0.6875 | 0.0261
x2 = 0.7289 | 0.0245
x2 = 0.7789 | 0.022
x2 = 0.8278 | 0.0185
x2 = 0.8799 | 0.0146
x2 = 0.9199 | 0.0104
